Laboratory results taken from patent US20150031714A1, “METHODS AND COMPOSITIONS FOR PREVENTION OF ALLERGIC REACTION” (Baylor College of Medicine, priority 2013, published 2015).

Tested on: Stat1 (pY701)
Assay: Immunoblot assay of IFN-γ-mediated Stat1 phosphorylation in HepG2 cells
Assay type: cell-based, human
Conditions: 300 μM, 1 hour at 37° C.
Protocol: HepG2 cells were pretreated with DMSO alone or DMSO containing each of the compounds at a concentration of 300 μM for 60 min. Cells were then stimulated with IFN-γ (30 ng/ml) for 30 min. Protein extracts of cells were separated by SDS-PAGE and immunoblotted serially with antibodies to pStat1, total Stat1 and β-actin. Blots were stripped between each immunoblotting. The results shown are representative of 2 or more experiments.
Immunoblot assay. The human hepatocellular carcinoma cell line (HepG2) was grown in 6-well plates under standard conditions. Cells were pretreated with compounds (0, 1, 3, 10, 30, 100 and 300 uM) for 1 hour then stimulated under optimal conditions with either interferon gamma (IFN-γ; 30 ng/ml for 30 min) to activate Stat1 or interleukin-6 (IL-6; 30 ng/ml for 30 min) to activate Stat3 (30-31). Cultures were then harvested and proteins extracted using high-salt buffer, as described (Shao et al., 2006). Briefly, extracts were mixed with 2× sodium dodecyl sulfate (SDS) sample buffer (125 mmol/L Tris-HCL pH 6.8; 4% SDS; 20% glycerol; 10% 2-mercaptoethanol) at a 1:1 ratio and heated for 5 minutes at 100° C. Proteins (20 μg) were separated by 7.5% SDS-PAGE and transferred to polyvinylidene fluoride (PVDF) membrane (Millipore, Waltham, Mass.) and immunoblotted. Prestained molecular weight markers (Biorad, Hercules, Calif.) were included in each gel. Membranes were probed serially with antibody against Stat1 pY^701 or Stat3 pY^705 followed by antibody against Stat1 or Stat3 (Transduction labs, Lexington, Ky.) then antibody against β-actin (Abcam, Cambridge, Mass.). Membranes were stripped between antibody probing using Restore™ Western Blot Stripping Buffer (Thermo Fisher Scientific Inc., Waltham, Mass.) per the manufacturer's instructions. Horseradish peroxidase-conjugated goat-anti-mouse IgG was used as the secondary antibody (Invitrogen Carlsbad, Calif.) and the membranes were developed with enhanced chemiluminescence (ECL) detection system (Amersham Life Sciences Inc.; Arlington Heights, Ill.).
While Stat3 contributes to oncogenesis, in part, through inhibition of apoptosis, Stat1 is anti-oncogenic; it mediates the apoptotic effects of interferons and contributes to tumor surveillance (Kaplan et al., 1998; Ramana et al., 2000). Consequently, compounds that target Stat3 while sparing Stat1, leaving its anti-oncogenic functions unopposed, may result in a synergistic anti-tumor effect. […] Thus, five of the six exemplary compounds identified were selective and inhibited ligand-stimulated phosphorylation of Stat3 but not Stat1.
EXP IIC. Ligand-mediated pStat3 and pStat1 inhibition assays. […] Briefly, human hepatocellular carcinoma cells (HepG2) are grown in 6-well plates and pretreated with compounds (0, 0.1, 0.3, 1, 3, 10, 30, 100 μM) for 1 hour then stimulated under optimal conditions with either interleukin-6 (IL-6; 30 ng/ml for 30 min) to activate Stat3 or interferon gamma (IFN-γ; 30 ng/ml for 30 min) to activate Stat1. Cells are harvested and proteins extracted using high-salt buffer, mixed with 2× sodium dodecyl sulfate (SDS) sample buffer (125 mmol/L Tris-HCL pH 6.8; 4% SDS; 20% glycerol; 10%2-mercaptoethanol) at a 1:1 ratio then heated for 5 minutes at 100° C. Proteins (20 μg) are separated by 7.5% SDS-PAGE and transferred to polyvinylidene fluoride (PVDF) membrane (Millipore, Waltham, Mass.) and immunoblotted. Membranes are probed serially with antibody against Stat1 pY701 or Stat3 pY705 followed by antibody against Stat1 or Stat3 (Transduction labs, Lexington, Ky.) then antibody against β-actin (Abcam, Cambridge, Mass.). Membranes are stripped between antibody probings using Restore™ Western Blot Stripping Buffer (Thermo Fisher Scientific Inc., Waltham, Mass.) per the manufacturer's instructions. […]

O=C(O)c1ccc(C=CC(=O)c2ccc3c(c2)OCCO3)cc1 [Cpd3, 4-[3-(2,3-dihydro-1,4-benzodioxin-6-yl)-3-oxo-1-propen-1-yl]benzoic acid]
Stat1 phosphorylation after IFN-γ stimulation: did not

CCOc1cc(C=C2C(=O)c3ccccc3C2=O)cc(Cl)c1OCc1cccc(C(=O)O)c1 [Cpd3-2, 3-({2-chloro-4-[(1,3-dioxo-1,3-dihydro-2H-inden-2-ylidene)methyl]-6-ethoxyphenoxy}methyl)benzoic acid]
Stat1 phosphorylation after IFN-γ stimulation: did not
